Test results published in article PMC3782081 (Cell, 2012).
Blank lines part the entries; values can stand above or below the molecule they belong to.

Experiments:
Assay type in all cases: cell-based
[1] = target: T1, UCP1 (uncoupling protein 1) (Mus musculus, UniProt P12242); assay: whole-mitoplast patch-clamp, inhibition by […] in the bath; details: read-out: % inhibition at 4 μM
T1 sequence (P12242 1-307): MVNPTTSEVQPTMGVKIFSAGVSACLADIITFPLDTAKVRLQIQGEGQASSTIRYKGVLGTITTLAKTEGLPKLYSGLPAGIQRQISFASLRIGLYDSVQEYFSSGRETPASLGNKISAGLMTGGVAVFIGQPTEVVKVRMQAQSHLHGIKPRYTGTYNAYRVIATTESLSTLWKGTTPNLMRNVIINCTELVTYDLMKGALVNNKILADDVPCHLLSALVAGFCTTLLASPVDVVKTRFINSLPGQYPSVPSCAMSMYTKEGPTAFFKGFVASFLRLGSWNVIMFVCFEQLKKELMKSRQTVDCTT

[2] = target: T1, UCP1 (uncoupling protein 1); assay: whole-mitoplast patch-clamp, inhibition of IUCP1 reactivated with exogenous OA; details: read-out: % inhibition at 50 μM
[3] = target: T1, UCP1 (uncoupling protein 1); assay: whole-mitoplast patch-clamp, inhibition by […] GDP in the bath

inhibition at 4 µM [1]: 92%
Structure (SMILES): CCCCCCCC/C=C\CCCCCCCC(=O)SCCNC(=O)CCNC(=O)[C@H](O)C(C)(C)COP(=O)(O)OP(=O)(O)OC[C@H]1O[C@@H](n2cnc3c(N)ncnc32)[C@H](O)[C@@H]1OP(=O)(O)O [oleoyl-CoA]

inhibition at 50 µM [2]: 77%
Structure (SMILES): O=C1NC(=O)/C(=C/c2ccc(C(=O)NC[C@@H]3C[C@@H](SC(c4ccccc4)(c4ccccc4)c4ccccc4)CN3C(=O)c3ccccc3C(=O)c3ccc(F)cc3F)cc2)S1 [pyrrophenone]

Structure (SMILES): Nc1nc2c(ncn2[C@@H]2O[C@H](COP(=O)(O)OP(=O)(O)O)[C@@H](O)[C@H]2O)c(=O)[nH]1 [GDP]
whole-mitoplast patch-clamp, inhibition by 1 mM GDP in the bath [3]: elicited a large-amplitude current that was strongly inhibited by the classic UCP1 inhibitor GDP (Figure 1B)
